Assay results from patent US20190297888A1, “FUNGICIDAL COMPOUNDS AND MIXTURES FOR FUNGAL CONTROL IN CEREALS” (Dow AgroSciences LLC, priority 2016, published 2019).

Tests used:
[1] = test system: Puccinia triticina (PUCCRT); test: Field assessment of Compound I and penthiopyrad on brown rust of wheat (AUDPC % control); type: in vivo; settings: AUDPC-based, 2 field trials
Description: (§1) Treatments consisting of the compound of Formula I and fungicide compound penthiopyrad were applied either using individually or as a two-way mixture of penthiopyrad with the compound of Formula I. The compound of Formula I was applied with Agnique BP-420 (50% w/w at 0.3% v/v) at 75 and 150 g ai/ha and Penthiopyrad (Vertisan) was applied at 125 and 200 g ai/ha. Commercial standards used in the studies were Fluxapyroxad (Imtrex), applied at 100 g ai/ha, and Metconazole+Fluxapyroxad (Librax), applied at 161 g ai/ha.
Fungicidal treatments containing the compound of Formula I and penthiopyrad, either individually or as a two-way mixture, were assessed against brown rust of wheat (PUCCRT) in two separate field trials. In the first trial, fungicidal treatments were applied at B37-39 (protectant, approximately 0% infection at application) growth stages of wheat (TRZAW, MV Vanek variety) under natural infection of brown rust. The treatment was part of an experimental trial designed as a randomized complete block with four replications and a plot of approximately 2×3 m. Fungicidal treatments were applied at a water volume of 200 L/ha, using a backpack plot sprayer with a TEEJET QJ90-2XTT110 015 Nozzle.
In the second trial, fungicidal treatments containing the compound of Formula I and penthiopyrad, either individually or as a two-way mixture, were applied at B33 (curative, approximately 6.6% infection at application) growth stage of wheat (TRZAW, Miradoux variety) under natural infection of brown rust. The treatments were part of an experimental trial designed as a randomized complete block with four replications and a plot of approximately 2×3 m. Fungicidal treatments were applied at a water volume of 200 L/ha, using a backpack plot sprayer with a HARDI MD 110-02 Nozzle.
(§2) Disease severity (percentage of visual diseased foliage on whole plot or leaves) in both field trials was recorded following EPPO PP1/26 guideline prescriptions. Area under the disease progress curve (AUDPC) was calculated for each plot in both trials using the sets of recorded severity data. Relative AUDPC (% control based on AUDPC) was calculated as percent of the nontreated control. Final results for the control of brown rust of wheat by the compound of Formula I, penthiopyrad and mixtures are reported as an average of the relative AUDPC calculated over all […] field trials. Statistical analysis was done according to ANOVA and Tukey's test (p=0.10).

[2] = test system: Zymoseptoria tritici (SEPTTR); test: Field assessment of Compound I and penthiopyrad on leaf blotch of wheat (AUDPC % control); type: in vivo; settings: AUDPC-based, 3 field trials
Description: as §1
Fungicidal treatments containing the compound of Formula I and penthiopyrad, either individually or as a two-way mixture, were assessed against leaf spot of wheat (SEPTTR) in three separate field trials. In the first trial, fungicidal treatments were applied at B33 (3% infection at application on L3) growth stage of winter wheat (TRZAW, Dinosor variety). The treatments were part of an experimental trial designed as a randomized complete block with four replications and a plot of approximately 1×6 m. Treatments were applied at water volume of 200 L/ha, using a backpack plot sprayer (BKPCKENG, FLATFANA nozzle) and pressurized at 200 kPa.
In the second trial, fungicidal treatments were applied twice at B32 (curative, 25% infection at application on L5) and B37-39 (5% infection at application on L3) growth stages of winter wheat (TRZAW, Consort variety). The treatments were part of an experimental trial designed as a randomized complete block with four replications and a plot of approximately 1×2 m. Treatments were applied at water volume of 200 L/ha, using a backpack plot sprayer (BKPCKAIR, Flat fan nozzle) and pressurized at 210 kPa.
In the final trial, fungicidal treatments were applied twice at B32 (protective, 15% infection at application on L6) and B37-39 (12% infection at application on L5) growth stages of winter wheat (TRZAW, Smaragd variety). The treatments were part of an experimental trial designed as a randomized complete block with four replications and a plot of approximately 2×3 m. Treatments were applied at water volume of 200 L/ha, using a backpack plot sprayer (BICYCAIR, FLATFANA nozzle) and pressurized at 220 kPa.
as §2, with “leaf spot” for “brown rust”, “Statistical analysis was done according to ANOVA and Tukey's test (p=0.10).” left out

## N#Cc1ccc(Oc2ccc(C(F)(F)C(O)(Cn3ncnc3S)c3ccc(F)cc3F)nc2)cc1 (stereo not shown) [Compound I, 4-((6-(2-(2,4-difluorophenyl)-1,1-difluoro-2-hydroxy-3-(5-mercapto-1H-1,2,4-triazol-1-yl)propyl)pyridin-3-yl)oxy)benzonitrile]
[1]; rate 75 g ai/ha
  PUCCRT % Control: 93.5%
[1]; rate 150 g ai/ha
  PUCCRT % Control: 94.6%
[2]; rate 75 g ai/ha
  SEPTTR % Control: 60.6%
[2]; rate 150 g ai/ha
  SEPTTR % Control: 71.1%
